Laboratory results: patent publication US20010025105A1, “Certain substituted 1-aryl-3-piperazine-1'-yl propanones” (Molecular Geriatarics Corporation, priority 1997, published 2001)
Where a name gives a salt, the structure may show the parent alone.

System: TG3 immunoreactivity in OKA treated MSN1a cells
Assay: MSN1a cell culture model, ELISA with TG3 antibody, okadaic acid treated cells
Assay type: cell-based, human
Settings: 1 μM OKA, 2 hrs at 37° C., read-out: IC50 for inhibition of TG3 immunoreactivity in OKA treated MSN1a cells
Description: This assay can thus be used to determine whether a drug is capable of preventing or intervening in AD by attenuating the production of abnormally phosphorylated paired helical filament epitopes associated with AD. To determine whether a drug is capable of preventing or intervening in AD activity, the MSN1a cells containing tau and associated proteins are treated with OKA capable of greatly increasing immunoreactivity of the MSN1a cells with AD specific monoclonal antibodies. Then, either prior to or concomitantly with OKA treatment, a compound of the present invention is added to the culture. If the compound prevents the induction of the AD epitopes in the MSN1a cells treated with OKA, then it is said to have anti-AD activity. If the AD-specific antibodies are highly reactive with the neuroblastoma cells following OKA treatment in the presence of compound, then the compound is said to be ineffectual against AD.
The MSN1a human neuroblastoma line was subcloned from a population of MSN cells obtained from the laboratory of Dr. Peter Davies (Albert Einstein College of Medicine, New York, N.Y.). Cells were grown and maintained in flasks in RPMI 1640 medium, supplemented with 15% fetal calf serum, 100 U/ml penicillin, 100 U/ml Streptomycin, 0.5 ug/ml fungizone under 7.5% CO2 at 37° C.
Stock solutions of drugs were prepared by dissolving the anhydrous powders to final concentrations of either 10 or 20 mM in 50% aqueous or 100% dimethyl sulfoxide (DMSO), respectively. Working solutions of drugs were prepared by dilution of the stock solutions with Kreb's Ringer in Hepes buffer (KRH) (128 mM NaCl, 5 mM KCl, 2.5 mM CaCl2 1.2 mM MgSO4, 1 mM Na2HPO4, 10 mM dextrose, 20 mM Hepes, pH 7.4). OKA is maintained as a 1 mM stock solution in DMSO prior to dilution to 4 μM in KRH.
MSN cells grown in 225 cm^2 flasks are removed from the incubator, their medium decanted and replaced with 50 ml pre-warmed KRH. The cells are harvested by scraping prior to sedimentation at 1000 rpm for 5 min. The supernatants are discarded and the cell pellets are resuspended, the cells counted and diluted to a density of 2×10^4 cells/[…]. The cells are then plated in a 96 well plate at 50 μl/well and 25 μl of 4 μM OKA and 25 μl of drug are then added to the appropriate wells; the entire 96 well plate is then incubated for 2 hrs at 37° C. Depending on the dilution of drug added, this yields individual wells containing 1 μM OKA, 0-64 μM drug and 2×10^4 cells in 0.26% DMSO in KRH. The incubation is terminated by the addition of 20 μl of 6X extraction buffer and immediate freezing at −80° C. for at least one hr. The 6X extraction buffer contains: 25 mM Tris-HCl, pH 7.6, 150 mM NaCl, 5 mM EDTA, 24 mM β-glycerol phosphate, 10 μg/ml APMSF (4-amidinophenylmethane-sulfonyl flouride), and 2.5 μg/ml each of leupeptin, aprotinin, and pepstatin. The plates are thawed in a 37° C. water bath and 20 μl of cell lysate is added to a replica well in an ELISA plate that already contains 80 μl of coating buffer (15 mM Na2CO3 and 35 mM NaHCO3, pH 9.6). The plates are allowed to coat overnight at 4° C. The plates are washed four times with deionized water and then blocked for 30 min at 37° C. with 200 μl/well pre-warmed 1% bovine serum albumin in 10 mM Tris-HCl, pH 7.4, 150 mM NaCl, 3 mM NaN3 (BSA-TBS). After the blocking solution is removed, 100 μl/well of an appropriate dilution of pre-warmed primary antibody (eg., TG3 or PHF-1) in BSA-TBS is added and incubated at 37° C. for 30 min. Incubation is terninated by washing four times in deionized water at which time 100 μl of an appropriate dilution of pre-warmed secondary antibody (conjugated to alkaline phosphatase) in BSA-TBS is added to each well in the ELISA plate. Incubation is performed for 30 min at 37° C. followed by washing 4 times with deionized water. […] of prewarmed chromogenic substrate (1 mg/mnl p-nitrophenyl phosphate in 10% diethanolamine, 3 mM NaN3, 0.5 mM MgCl2, pH 9.8) is added and the plate incubated for 30 min at 37° C. […]

Row | Compound | IC50
1 | O=C(CCN1CCN(Cc2ccccc2)CC1)c1ccccc1F [Example 13, 1-(o-Fluorophenyl)-3-(4′-benzyl-1′-piperazinyl)-1-propanone dihydrochloride] | 11 µM
2 | Cl.Cl.O=C(CCN1CCN(Cc2ccccc2)CC1)c1ccc([N+](=O)[O-])cc1 [Example 5, 1-p-Nitrophenyl)-3-(4′-benzyl-1′-piperaziny)-1-propanone dihydrochloride] | 5 µM
3 | O=C(CCN1CCN(Cc2ccccc2)CC1)c1ccccc1I [Example 81, 1-o-Iodophenyl-3-(4′-benzyl-1′-piperazinyl)-1-propanone dihydrochloride] | 4.5 µM
4 | O=C(CCN1CCN(Cc2ccccc2)CC1)c1ccc(Br)cc1 [Example 16, 1-(p-Bromophenyl)-3-(4′-benzyl-1′-piperazinyl)-1-propanone dihydrochloride] | 5.2 µM
5 | 1-(1-Nitrophenyl)-3-[4′-(2″,3″-difluorobenzoyl)-1′-piperazinyl]-1-propanone dihydrochloride [Example 63] | 7.3 µM
6 | O=C(CCN1CCN(Cc2ccccc2)CC1)c1cccc([N+](=O)[O-])c1 [Example 11, 1-(m-Nitrophenyl)-3-(4′-benzyl-1′-piperazinyl)-1-propanone dihydrochloride] | 4.2 µM
7 | O=C(CCN1CCN(C(=O)c2ccccc2C(F)(F)F)CC1)c1ccc([N+](=O)[O-])cc1 [Example 39] | 10 µM
8 | 1-(-Methylthiophenyl)-3-(4′-benzyl-1′-piperazinyl)-1-propanonedihydrochloride [Example 14] | 5.8 µM
9 | CS(=O)(=O)Nc1ccc(C(=O)CCN2CCN(Cc3cc(F)ccc3F)CC2)cc1 [Example 36, 1-p-Methanesulfonamidophenyl)-3-(2″,5″-difluorobenzyl-1′-piperazinyl)-1-propanone dihydrochloride] | 25 µM
10 | O=C(CCN1CCN(Cc2ccccc2)CC1)c1ccc(Br)s1 [Example 57, 1-(5″-Bromo-2″-thieny)-3-(4′-benzy-1′-piperazinyl)-1-propanone dihydrochloride] | 6.8 µM
11 | O=C(CCN1CCN(Cc2ccccc2F)CC1)c1ccc(I)cc1 [Example 29, 1-(p-Iodophenyl)-3-[4′-(o-fluorobenzyl)-1′-piperazinyl]-1-propanone dihydrochloride] | 8.7 µM
12 | O=C(CCN1CCN(Cc2cccc(F)c2)CC1)c1ccc([N+](=O)[O-])cc1 [Example 42, 1-(p-Nitrophenyl)-3-[4′-(m-fluorobenzyl)-1′-piperazinyl]-1-propanonedihydrochloride] | 5.7 µM
13 | O=C(CCN1CCN(Cc2ccccc2F)CC1)c1ccc([N+](=O)[O-])cc1 [Example 32, 1-(p-Nitrophenyl)-3-[4′-(o-fluorobenzyl)-1′-piperazinyl]-1-propanone dihydrochloride] | 6.2 µM
14 | O=C(CCN1CCN(Cc2ccc(F)cc2)CC1)c1ccccc1F [Example 44, 1-(o-Fluorophenyl)-3-[4′-(p-fluorobenzyl)-1′-piperazinyl]-1-propanone dihydrochloride] | 7.5 µM
15 | O=C(CCN1CCN(Cc2ccc(F)c(F)c2)CC1)c1ccc([N+](=O)[O-])cc1 [Example 55, 1-(p-Nitrophenyl)-3-[4′-(3″,4″-difluorobenzyl)-1′-piperazinyl]-1-propanone dihydrochloride] | 6.3 µM

Same assay, conditions: Homo sapiens, 1 μM OKA, 2 hrs at 37° C., read-out: IC50 for inhibition of TG3 immunoreactivity in OKA treated MSN1a cells

Row | Compound | IC50
16 | O=C(CCN1CCN(Cc2ccccc2)CC1)c1ccc2c(c1)OCCO2 [Example 19, 1-(2″,3″-Dihydro-1″,4″-benzodioxan-6″-yl)-3-(4′-benzyl-1′-piperazinyl)-1-propanone dihydrochloride] | 15.6 µM
17 | O=C(CCN1CCN(Cc2ccccc2)CC1)c1ccc(Sc2ccccc2)cc1 [Example 69, 1-p-Phenylthiophenyl-3-(4′-benzyl-1′-piperazinyl)-3-propanone dihydrochlonde] | 15 µM
18 | Cc1ccc(C(=O)CCN2CCN(Cc3ccccc3)CC2)o1 [Example 67, 1-(5″-Methyl-2″-furanyl)-3-(4′-benzyl-1′-piperazinyl)-1-propanone hydrochloride] | 20 µM
19 | O=C(CCN1CCC(C(=O)c2ccc(F)cc2)CC1)c1csc([N+](=O)[O-])c1 [Example 98, 1-(2″-Nitro-4″-thienyl)-3-(4′-p-fluorobenzoyl-1′-piperidinyl)-1-propanone hydrochloride] | 34 µM
20 | CS(=O)(=O)Nc1ccc(C(=O)CCN2CCN(Cc3ccccc3)CC2)cc1 [Example 26, 1-[-p-(Methanesulfonamido)phenyl]-3-(4′-benzyl-1′-piperazinyl)-1-propanone dihydrochloride] | 14.7 µM
21 | O=C(CCN1CCN(Cc2ccccc2)CC1)c1cccn1S(=O)(=O)c1ccccc1 [Example 91, 1-(N-Phenylsulfonylpyrrol-2-yl)-3-(4′-benzyl-1′-piperazinyl)-1-propanone dihydrochloride] | 9.5 µM

System: not given
Assay: not given
Settings: not given

Row | melting point | Compound
22 | 247 °C (dec.) | Cc1c(C(=O)CCN2CCN(Cc3ccccc3)CC2)sc2ccc(Cl)cc12 (as salt: hydrochloride) [Example 82, 1-(5″-Chloro-3″-methylbenzo[b]-2″-thienyl)-3-(4′-benzyl-1′-piperazinyl)-1-propanone dihydrochloride]
23 | 230 °C (dec.) | COc1ccc(C(=O)CCN2CCN(Cc3ccccc3)CC2)c2ccccc12 (as salt: hydrochloride) [Example 79, 1-(4″-Methoxy-1″-naphthalenyl)-3-(4′-benzyl-1′-piperazinyl)-1-propanone dihydrochloride]
24 | 225 to 226 °C | O=C(CCN1CCN(C(=O)c2c(F)cccc2F)CC1)c1ccc(Br)s1 (as salt: hydrochloride) [Example 62, 1-(5′″-Bromo-2′″-thienyl)-3-[4′-(2″,6″-difluorobenzoyl)-1′-piperazinyl]-1-propanone hydrochloride]
25 | 221 °C (dec.) | Cn1cc(C(=O)CCN2CCN(Cc3ccccc3)CC2)cn1 (as salt: hydrochloride) [Example 24, 1-(1″-Methyl-1″-H-pyrazol-4″-yl)-3-(4′-benzyl-1′-piperazinyl)-1-propanone dihydrochloride]
26 | 240 °C | O=C(CCN1CCN(C(=O)c2ccc(I)cc2)CC1)c1ccc(N2CCOCC2)cc1 (as salt: hydrochloride) [Example 68, 1-(p-N-Morpholinophenyl)-3-[4′-p-iodobenzoyl)-1′-piperazinyl]-1-propanone dihydrochloride]

Row | Compound | melting point
27 | O=C(CCN1CCN(Cc2ccccc2)CC1)c1ccc2c(c1)OCCO2 (as salt: hydrochloride) [Example 19, 1-(2″,3″-Dihydro-1″,4″-benzodioxan-6″-yl)-3-(4′-benzyl-1′-piperazinyl)-1-propanone dihydrochloride] | 215 °C (dec.)
28 | Cc1ccc(C(=O)CCN2CCN(Cc3ccccc3)CC2)o1 (as salt: hydrochloride) [Example 67, 1-(5″-Methyl-2″-furanyl)-3-(4′-benzyl-1′-piperazinyl)-1-propanone hydrochloride] | 213 °C (dec.)
